# Where two headings read alike, the source gives them in different places.
# How the values were obtained:
# [1] = tested on: Zika virus Malaysia P 6-740; test: Virus yield reduction (VYR) assay; format: cell-based
# Protocol: (§1) The compounds were administered at a range of concentrations up to 100 μg/ml. Compounds were prepared in MEM just prior to testing. Inhibition of virus replication was determined by microscopic examination of the infected cells for cytopathic effect, increase of neutral red (NR) dye uptake (colorimetric determination), and virus yield reduction. Uninfected cells treated with a compound were assayed as above for cytotoxicity control. The EC50, EC90 and SI (selectivity index) values were determined in Vero76, Huh7 and RD cells as analyzed by the neutral red uptake dye assay and virus yield reduction assays. The results are presented from 3 or more independent experiments (standard deviations not shown. Three Zika virus strains were used in this in vitro study, Malaysia strain P 6-740, Uganda strain MR-766 and Puerto Rico strain PRVABC-59. Cells were maintained under standard conditions.
# [2] = tested on: Zika virus Puerto Rico PRVABC59; test: Virus yield reduction (VYR) assay; format: cell-based; settings: Puerto Rico PRVABC59
# Protocol: as §1
# Zika virus Uganda MR 766 = test: Virus yield reduction (VYR) assay; format: cell-based
# Protocol: as §1
# [3] = tested on: Zika virus (Malaysia, strain P 6-740); test: Murine Zika virus model, treatment begun 4 h before infection (Example 3); settings: for relative virus levels vs placebo: FIG. 4; for weight change in grams between days 7 and 13 post-infection: FIG. 3B
# Protocol: The agents used in this experiment were compound A (the compound of formula I, where A is NH2 and B is H as the HCL salt) and ribavirin. Compound A was administered IM at 150 mg/kg/day and 300 mg/kg/day, each in a volume of 0.05 ml saline and ribavirin was administered IP at 75 mg/kg/day and 50 mg/kg/day, each in a volume of 0.1 ml saline. IM or IP administration of the daily dose was accomplished in two IM/IP injections of one-half the daily dose each. Mice were administered the first dose of Compound A and ribavirin 4 hours prior to infection with Zika virus and continued the treatment for 8 days post-infection.
# In this experiment, Zika virus (Malaysia, strain P 6-740) was administered at a challenge dose of 100 CCID50 (10^3 pfu) per mouse via subcutaneous injection in a 0.1 ml volume.
# Mice were monitored for survival 28 days post-virus challenge. Weight change for individual mice were taken on day 0 and every other day through the end of the experiments. Mice were observed daily for signs of disease including conjunctivitis, hunching, and limb weakness or paralysis.
# For Zika virus infection and antiviral treatment studies, mice were randomly assigned to groups of 10 animals each. A 10^-3 dilution (10^4.0 pfu/mL) of the virus was prepared in MEM. Mice were challenged s.c. with 0.1 mL of the diluted virus (˜10^3.0 pfu/animal). All compound dosages were based on an average mouse weight of 22 g. Compounds were prepared in sterile saline less than 18 hours prior to initial administration in mice and stored at 4° C. for the duration of the study. Compound A was administered i.m., twice daily (bid) at 300 or 150 mg/kg/d. Ribavirin was given i.p., bid at 75 or 50 mg/kg/d. Treatments began 4 hours prior to virus challenge and continued for 8 days. The identity of the treatment groups was blinded to the technician administering treatments. Mortality was observed twice daily for 28 days, and the weight of each mouse was recorded on day 0 and then every other day from 1-19 days post-virus infection (dpi). Mice were humanely euthanized if they could no longer right themselves or were unresponsive to stimuli.
# Fifty to 100 mg of freshly isolated tissue was ground with a pestle in 1 mL TRI Reagent (Sigma-Aldrich, St. Louis, MO) and total RNA was extracted. For the extraction of viral RNA from liquid samples, QlAamp Viral RNA Mini Spin kit was used according to the manufactures instructions (Qiagen, Valencia, CA). Extracted RNA was eluted with nuclease-free water and was amplified by a quantitative real-time RT-PCR using the Logix Smart Zika Test developed by Co-Diagnostics, Inc. (Bountiful, UT). Five μL of the master mix containing a set of primers and Rapid Probe, labeled with a FAM fluorophore and DABCYL quencher, was mixed with 2-5 μL of RNA and an appropriate volume of water for a final reaction volume of 10 μl. RNA was first reverse transcribed for 10 minutes at 55° C., followed by strand separation by heating to 95° C. for 20 seconds. The PCR reaction consisted of 40 cycles at 95° C. for 1 second and 55° C. for 20 seconds. A standard curve was generated with a synthetic RNA spanning the region of amplification and it was used to calculate the number of genome equivalents of the unknown samples.
# [4] = tested on: Zika virus (Malaysia, strain P 6-740); test: Murine Zika virus model, treatment begun 1, 3, 5 or 7 dpi (Example 5); format: in vivo, AG129 mice; settings: for number of mice showing no disease signs: n=8; for weight change in grams between days 7 and 13 post-infection vs placebo: FIG. 10B
# Protocol: Compound A was administered IM at 300 mg/kg/day in a volume of 0.05 ml saline.
# Disease signs were assessed daily for each mouse and the date the disease sign was first noted was recorded. The graph represents the number of mice observed with each disease sign. […] As the time of administration of Compound A post-infection increased, the number of mice displaying no disease signs decreased (2 mice at 3 dpi, 1 mouse at 5 dpi and 0 mice at 7 dpi) and the total number of disease signs increased (13 disease signs at 3 dpi, 16 disease signs at 5 dpi and 23 disease signs at 7 dpi).
# [5] = tested on: Zika virus KF993678 (Thai isolate); test: Non-human primate Zika virus model, heterologous challenge day 70 (Example 6); format: in vivo, Indian rhesus macaques; settings: Groups 1 and 2, no additional dosing
# Zika virus PRVABC-59 = settings: for plasma viremia: n=4; for samples with Zika virus below the limit of quantification: FIG. 15D
smiles,measurement,setting,value
Cl.Nc1ncnc2c([C@@H]3N[C@H](CO)[C@@H](O)[C@H]3O)c[nH]c12 [Compound A],VYR assay EC90,[1]; Huh-7 cells,4.9 ± 0.9 µg/mL
same,VYR assay EC90,[1]; Vero76 cells,13.8 ± 3.7 µg/mL
same,VYR assay EC90,[2]; Huh-7 cells,6.7 ± 1.2 µg/mL
same,VYR assay EC90,[2]; RD cells,10.0 ± 2.2 µg/mL
same,VYR assay EC90,"[2]; Vero76 cells, virus harvested 5 dpi, 1 log10 CCID50 reduction",18.2 ± 2.7 µg/mL
same,VYR assay EC90,Zika virus Uganda MR 766; Huh-7 cells,6.4 µg/mL
same,VYR assay EC90,Zika virus Uganda MR 766; RD cells,5.4 ± 1.1 µg/mL
same,VYR assay EC90,Zika virus Uganda MR 766; Vero76 cells,8.7 µg/mL
same,relative virus levels vs placebo,[3]; 150 mg/kg/day IM (group 3),decreased viral levels in a statistically significant manner
same,survival,"[3]; 150 mg/kg/day IM bid x 8 days, begun -4 h (group 3)",all died by day 27 post-infection
same,mortality curve vs placebo,"[3]; 150 mg/kg/day IM bid x 8 days, begun -4 h (group 3), p<0.001",delayed the mortality curve
same,percent weight change,"[3]; 150 mg/kg/day IM, Zika infected (group 3), FIG. 3A",modest weight reduction starting around day 15 post-infection
same,weight change in grams between days 7 and 13 post-infection,[3]; 150 mg/kg/day IM,weight change similar to that seen in normal controls
same,morbidity in surviving mice 28 days post-infection,[3]; 300 mg/kg/day IM (group 1),no morbidity was observed
same,weight change in grams between days 7 and 13 post-infection,[3]; 300 mg/kg/day IM (group 1),weight change similar to that seen in normal controls
same,relative virus levels vs placebo,[3]; 300 mg/kg/day IM (group 1),decreased viral levels in a statistically significant manner
same,mice survived to day 28 post-infection,"[3]; 300 mg/kg/day IM bid x 8 days, begun -4 h (group 1), p<0.0001 vs placebo",7/8
same,morbidity or mortality at day 28 in sham-infected mice,"[3]; 300 mg/kg/day IM bid x 8 days, sham infection (group 2)",No morbidity or mortality
same,percent weight change,"[3]; 300 mg/kg/day IM, Zika infected (group 1), FIG. 3A",weight change similar to that seen in normal controls
same,percent weight change in sham-infected mice,"[3]; 300 mg/kg/day IM, sham infection (group 2), FIG. 3A",weight change similar to that seen in normal controls
same,time of first administration at which treatment is effective,[4]; 300 mg/kg/day IM,up to 5 days post-infection
same,survival vs placebo,"[4]; 300 mg/kg/day IM bid x 8 days, begun 1 dpi, p≤0.001",statistically significant improvements in survival
same,viral RNA levels in serum on day 5 post-infection,"[4]; 300 mg/kg/day IM, begun 1, 3, 5 or 7 dpi, FIG. 10C",not significantly decreased
same,total number of disease signs,"[4]; 300 mg/kg/day IM, begun 1 dpi",6 disease signs
same,number of mice showing no disease signs,"[4]; 300 mg/kg/day IM, begun 1 dpi",6 mice
same,weight change in grams between days 7 and 13 post-infection vs placebo,"[4]; 300 mg/kg/day IM, begun 1 dpi, p≤0.001",statistically significant decrease in weight loss
same,percent weight change,"[4]; 300 mg/kg/day IM, begun 1 dpi, through 27 dpi, FIG. 10A",essentially no weight change
same,mortality curve and survival vs placebo,"[4]; 300 mg/kg/day IM, begun 3 dpi",delayed the mortality curve of infected mice and increased survival
same,total number of disease signs,"[4]; 300 mg/kg/day IM, begun 3 dpi",13 disease signs
same,percentage weight loss,"[4]; 300 mg/kg/day IM, begun 3 dpi, FIG. 10A",statistically significant decreases in percentage weight loss
same,number of mice showing no disease signs,"[4]; 300 mg/kg/day IM, begun 3 dpi",2 mice
same,weight change in grams between days 7 and 13 post-infection vs placebo,"[4]; 300 mg/kg/day IM, begun 3 dpi, p≤0.001",statistically significant decrease in weight loss
same,mortality curve and survival vs placebo,"[4]; 300 mg/kg/day IM, begun 5 dpi",delayed the mortality curve of infected mice and increased survival
same,total number of disease signs,"[4]; 300 mg/kg/day IM, begun 5 dpi",16 disease signs
same,percentage weight loss,"[4]; 300 mg/kg/day IM, begun 5 dpi, FIG. 10A",statistically significant decreases in percentage weight loss
same,number of mice showing no disease signs,"[4]; 300 mg/kg/day IM, begun 5 dpi",1 mouse
same,total number of disease signs,"[4]; 300 mg/kg/day IM, begun 7 dpi",23 disease signs
same,number of mice showing no disease signs,"[4]; 300 mg/kg/day IM, begun 7 dpi",0 mice
same,viral RNA in serum after heterologous challenge,[5]; FIG. 14A,minimal viral RNA
same,viral RNA in CSF after heterologous challenge,[5]; FIG. 14B,minimal viral RNA
same,plasma viremia,"Zika virus PRVABC-59; Group 1: 200 mg/kg day 0, 25 mg/kg b.i.d. days 1-9, IM",did not develop detectable viremia
same,plasma viremia,"Zika virus PRVABC-59; Group 2: 150 mg/kg day 0, 19 mg/kg b.i.d. days 1-9, IM",only one animal from this group showing slight viremia
same,plasma viremia,"Zika virus PRVABC-59; Group 3: 100 mg/kg day 0, 13 mg/kg b.i.d. days 1-9, IM",only two animals from this group showing slight viremia
same,plasma viremia,"Zika virus PRVABC-59; Group 4: 50 mg/kg day 0, 6 mg/kg b.i.d. days 1-9, IM",viremic between days 4 to 7 post-infection
same,tolerability,"Zika virus PRVABC-59; IM, Groups 1 to 4",well-tolerated
same,samples with Zika virus below the limit of quantification,Zika virus PRVABC-59; total dose 492 mg/kg (Group 2),3 out of 4
same,samples with Zika virus below the limit of quantification,Zika virus PRVABC-59; total dose 650 mg/kg (group 1),4 out of 4
same,maximum Zika virus titers vs control,"Zika virus PRVABC-59; total doses greater than 334 mg/kg (Groups 1 to 3), p <0.0001",decreased dramatically

# Reference: patent US11975003B2, “Methods and compositions for treatment of Zika virus infection” (priority 2016, dated 2024)
